Measurements as given in PubChem BioAssay AID1117361 (Southern Research Institute, 2015).
pIC50: −log10 of the molar value.

biological target: Protein Tat (Human immunodeficiency virus type 1 group M subtype B (isolate HXB2)) (UniProt P04608); assay: HIV-1 Tat–TAR interaction blockers – biochemical, fluorescence polarization, FAM-labeled TAR RNA, counter-screen for Vif-APOBEC3G degradation inhibitor project, dose response (AID 1117361); settings: Tat-TAR RNA binding
Sequence (P04608 whole entry, looked up): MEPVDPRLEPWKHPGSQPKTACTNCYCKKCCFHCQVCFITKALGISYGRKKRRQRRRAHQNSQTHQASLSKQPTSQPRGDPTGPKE

| SMILES | pIC50 |
| --- | --- |
| CCN1C(=O)/C(=C\c2ccco2)C(C(=O)OC)=C1C | 4.09 |
| O=C(O)C(Cc1ccccc1)N1C(=O)/C(=C/C=C/c2ccco2)SC1=S (centres undefined) | 5.90 |
| O=C1/C(=C\c2ccco2)SC(=S)N1Cc1ccccc1 | 4.76 |
| Cc1ccc2c(c1C)NC(C(=O)O)C1CC=CC21 (centres undefined) | 4.46 |
| O=C(Nc1nnc(C2CCCO2)s1)c1cccs1 (centres undefined) | 4.01 |
| CCOc1cccc(=O)c2c(C)n(CC(=O)c3ccccc3)c(C)c12 | 4.73 |
| NC(=O)/C(=C/c1ccco1)C(N)=S | 4.92 |
| C=CCSC1=N/C(=C\C=C\c2ccco2)C(=O)S1 | 5.72 |
| Oc1ccccc1/C=N/c1c(-c2ccco2)nc2ccccn12 | 5.53 |
| CC(CNc1ccccc1O)C(=O)O (centres undefined) | 4.49 |
| CN(C)c1ccc2cc(S(=O)(=O)O)cc(O)c2c1 | 4.05 |
| O=C1CCCC/C1=C/Nc1ccc2c(c1)OCO2 | 4.38 |
| CC(=O)c1ccc2c(c1)C1C=CCC1C(c1ccncc1)N2 (centres undefined) | 4.44 |
| COc1cccc2c1NC(C(=O)O)C1CC=CC21 (centres undefined) | 5.73 |
| O=C(O)C1OC(Oc2c(-c3ccc(O)c(O)c3)oc3cc(O)cc(O)c3c2=O)C(O)C(O)C1O (centres undefined) | 5.67 |
| Cc1ccc(-c2c3c([nH]c(=S)c2C#N)CCCC3)o1 | 4.67 |
| COC(=O)/C(=N/Nc1ccccc1C)N1CCCc2ccccc21 | 4.53 |
| Oc1ccc(/C=N/N2CCOCC2)c(O)c1O | 4.85 |
| O=[N+]([O-])c1cc(CN2CCCC2)c2cccnc2c1O | 5.05 |
| O=C(CCS(=O)(=O)c1ccc(Br)cc1)NC1CCCC1 | 4.29 |
| O=c1c(-c2cc3ccccc3o2)[n+]([O-])c2ccccc2n1OCc1ccccn1 | 4.46 |

| SMILES | pIC50 |
| --- | --- |
| CC1CC(=O)c2c(cc3c(-c4c(O)cc(O)c5c(O)c6c(cc45)OC(C)CC6=O)c(O)cc(O)c3c2O)O1 (centres undefined) | 5.12 |
| Cc1cc(C(=O)CSc2nnc(-c3ccco3)o2)c(C)n1Cc1ccco1 | 5.36 |
| CCc1ccccc1NC(=O)c1cccc(NC(=O)/C=C/c2ccco2)c1 | 4.58 |
| CC1=CC(=Nc2c(C)n(C)n(-c3ccccc3)c2=O)C=CC1=O | 4.84 |
| O=c1nc2s/c(=C\c3ccco3)c(=O)n2nc1Cc1ccccc1 | 5.28 |
| COCCNC(=O)Nc1ccc2nc(-c3ccco3)c(-c3ccco3)nc2c1 | 5.66 |
| O=c1ccc2c(-c3ccccc3S(=O)(=O)O)c3ccc(O)c(O)c3oc-2c1O | 5.32 |
| CC(C)(CS(=O)(=O)[O-])NC(=O)CC[N+](C)(C)CCO | 4.76 |
| N=C1S/C(=C\c2ccco2)C(=O)N1c1ccc2c(c1)OCO2 | 4.74 |
| O=S(=O)(O)c1cc(O)c2cc(Nc3ccccc3)ccc2c1 | 4.69 |
| O=C1NC(=S)S/C1=C\C=C\c1ccc([N+](=O)[O-])o1 | 5.56 |
| Cc1cccc(-n2c(Cc3cc(=O)[nH]c(=O)[nH]3)nnc2SCC(=O)NCC2CCCO2)c1 (centres undefined) | 4.23 |
| O=C(NCc1ccccc1Cl)c1csc2c1CCCCC2 | 4.57 |
| COc1ccc(O)c(C(=O)C2c3ccccc3C(=O)N2c2ccc(C)cc2)c1 (centres undefined) | 6.52 |
| Brc1c(CSc2nnc(-c3ccco3)o2)nc2ccccn12 | 4.62 |
| CCN(CC)C(=O)c1ccc2c(c1)C1C(Cl)C(Sc3ccccc3[N+](=O)[O-])CC1C(C(=O)O)N2 (centres undefined) | 5.26 |
| COC/C=C/C1=CC2=CC(=O)C(C)(OC(=O)C3CCCC3)C(=O)C2=CO1 (centres undefined) | 4.98 |
| CCCCn1c(O)c(C(CC)=NCCN2CCCCC2)c(=O)[nH]c1=O | 4.49 |
| Cc1ccc(Cn2c(=S)[nH]c3ccc(N4CCOCC4)cc3c2=O)o1 | 5.40 |
| Cc1ccc(S(=O)(=O)N2CCC(C(=O)Nc3nnc(-c4ccco4)s3)CC2)cc1 | 4.29 |
| C/C(=N\Nc1ccc(Cl)c(C(=O)O)c1)c1ccc[nH]1 | 4.67 |

| SMILES | pIC50 |
| --- | --- |
| O=C(O)CC(C(=O)O)N1C(=O)/C(=C/c2ccc(-c3nc4ccccc4s3)o2)SC1=S (centres undefined) | 4.95 |
| CCOC(=O)N1CC=C2C(C#N)=C(N)C(C#N)(C#N)[C@H](c3cccs3)[C@H]2C1 | 4.82 |
| Cc1cc(=O)c2c(O)c(O)ccc2o1 | 4.32 |
| O=C(O)c1ccc(COc2c(F)c(F)c(F)c(F)c2F)o1 | 4.04 |
| Cc1cccc(C)c1NC(=O)COC(=O)c1cc(-c2cccnc2)nc2ccccc12 | 4.07 |
| COc1ccccc1-n1c(-c2cc(-c3ccco3)[nH]n2)n[nH]c1=S | 5.27 |
| Cc1cc(/C=C2\C(=O)NC(=O)N(c3cccc(F)c3)C2=O)c(C)n1-c1cc(C(=O)O)cc(C(=O)O)c1 | 5.53 |
| COC(=O)C1=COC(C)C2CN3CCc4c([nH]c5ccccc45)C3CC12 (centres undefined) | 5.12 |
| CC1CCN(S(=O)(=O)c2ccc(C(=O)NCc3ccc4c(c3)OCO4)cc2)CC1 | 4.02 |
| CCN(CC)c1ccc(NC(=O)CCS(=O)(=O)c2ccc(Br)cc2)c(C)c1 | 4.33 |
| CC(C)OC(=O)c1cccc(C(=O)O)n1 | 5.72 |
| O=C1C(=Cc2ccco2)CCCC1=Cc1ccco1 | 4.19 |
| O=c1[nH]c(=S)[nH]c2c1C(c1ccc(Br)cc1)c1c([nH]c(=S)[nH]c1=O)O2 | 5.57 |
| c1cnc(N2CCN(c3cnccn3)CC2)nc1 | 4.14 |
| CN(C)N1C(N)=C(C#N)C(c2cccnc2)C2=C1CCCC2=O (centres undefined) | 4.81 |
| COC(=O)c1ccc(C(=O)OC)c(NC(=O)Cc2cccs2)c1 | 4.19 |
| O=C1NC(=O)N(c2ccccc2)C(=O)/C1=C\c1ccc([N+](=O)[O-])s1 | 4.97 |
| COc1ccc2c(c1)C(=O)c1ccccc1CO2 | 4.33 |
| NC1=NC(=O)/C(=C\c2ccco2)S1 | 5.22 |
| Nc1nc(-c2ccco2)c(-c2ccco2)s1 | 5.62 |
| COC(=O)COc1ccc(S(=O)(=O)Nc2cc(OC)ccc2OC)cc1 | 4.55 |

| SMILES | pIC50 |
| --- | --- |
| O=C(O)c1ccc(-n2cccc2/C=C2/NC(=O)N(c3cccc(Cl)c3)C2=O)cc1 | 5.11 |
| CCC(=Nc1ccc(N)cc1)C1=C(O)C(C(=O)OC)C(C)(C)CC1=O (centres undefined) | 5.26 |
| CCC(=O)NNc1ncnc2ccccc12 | 4.35 |
| COc1cc(-c2cccs2)cc(=O)c2c(C)oc(C)c12 | 4.64 |
| O=C1CC(Nc2ccc(N3CCOCC3)cc2)C(=O)N1Cc1ccccc1 (centres undefined) | 4.81 |
| O=C(Cc1cccs1)N/N=C/C=C/c1ccco1 | 5.09 |
| CCc1cc2cc(C)cc(C)c2nc1SCC(=O)N1CCN(C(=O)c2ccco2)CC1 | 4.41 |
| CCc1nc2oc3cc(OC)ccc3c(=O)c2c(=O)n1Cc1ccco1 | 4.62 |
| COc1cc2[nH]c(Cl)c([N+](=O)[O-])c2cc1OC | 4.61 |
| CCOC(=O)NC1(NC2CCCCC2)Oc2ccccc2O1 | 4.05 |
| CNc1ccc(Br)cc(C(=O)/C=C/c2cccc(OC)c2OC)c1=O | 5.10 |
| O=C(COc1ccccc1Cl)c1ccc[nH]1 | 4.83 |
| Cc1cccc(NC(=O)CSc2nnc(-c3ccco3)c(-c3ccco3)n2)c1C | 4.82 |
| Cc1nn(-c2ccccn2)c2c1C(=O)C(Br)CC2 (centres undefined) | 5.05 |
| N#Cc1c(NC(=O)CSc2ncnc3sccc23)oc(-c2ccco2)c1-c1ccco1 | 5.60 |
| CC1=CN2C(=N)/C(=C/c3ccc([N+](=O)[O-])o3)C(=O)N=C2S1 | 4.91 |
| CCOC(=O)C1=C(N)n2c(s/c(=C\c3ccco3)c2=O)=C(C(=O)OCC)C1c1ccco1 (centres undefined) | 5.10 |
| COC(=O)CCC(=O)OC1(C)C(=O)C=C2C=C3CCCN3C=C2C1=O (centres undefined) | 4.95 |
| Cc1ccc2c(c1)C1C=CCC1C(C(=O)O)N2 (centres undefined) | 5.43 |
| Cc1cc(C(=O)NCCCN2CCCC2=O)no1 | 4.62 |
| COC/C=C/C1=CC2=CC(=O)C(C)(OC(=O)CCC(=O)OC)C(=O)C2=CO1 (centres undefined) | 5.09 |
